Measured values from ChEMBL document CHEMBL1909046, “DrugMatrix in vitro pharmacology data”.

How the values were obtained:
[1] = DRUGMATRIX: Potassium Channel [KATP] radioligand binding (ligand: [3H] Glyburide); assay type: cell membranes, Membrane; details: hit-t15; Not Active = under 50% inhibition at 10 µM
[2] = target: T1, Adenosine receptor A3 (Homo sapiens, UniProt P0DMS8); assay type: cell membranes, CHO-K1, Membrane;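 also: radioligand binding assay with AB-MECA serving as the labeled ligand; in other assays of this panel Not Active means under 50% inhibition at 10 µM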
T1 sequence (P0DMS8 whole entry): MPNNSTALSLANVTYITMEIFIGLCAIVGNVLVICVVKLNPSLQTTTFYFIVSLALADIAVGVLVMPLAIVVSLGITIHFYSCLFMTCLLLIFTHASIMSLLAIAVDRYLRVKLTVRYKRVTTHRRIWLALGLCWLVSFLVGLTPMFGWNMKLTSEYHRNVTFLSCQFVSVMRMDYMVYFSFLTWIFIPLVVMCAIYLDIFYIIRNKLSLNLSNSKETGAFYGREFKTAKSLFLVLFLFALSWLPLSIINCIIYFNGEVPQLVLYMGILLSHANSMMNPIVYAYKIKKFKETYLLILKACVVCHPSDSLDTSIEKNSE

[3] = target: 5-hydroxytryptamine receptor 4 (Cavia porcellus, UniProt O70528); assay type: cell membranes, Dunkin-Hartley, Striatum, Membrane; also: in other assays of this panel Not Active means under 50% inhibition at 10 µM
[4] = target: Substance-P receptor (Homo sapiens, UniProt P25103); assay type: cell membranes, Membrane; details: cho; also: in other assays of this panel Not Active means under 50% inhibition at 10 µM
[5] = target: Insulin receptor (Rattus norvegicus, UniProt P15127); assay type: cell membranes, Wistar, Liver, Membrane; also: in other assays of this panel Not Active means under 50% inhibition at 10 µM
[6] = target: T2, Endothelin-1 receptor (Homo sapiens, UniProt P25101); assay type: cell membranes, Membrane; details: cho-k1; also: in other assays of this panel Not Active means under 50% inhibition at 10 µM
T2 sequence (P25101 whole entry): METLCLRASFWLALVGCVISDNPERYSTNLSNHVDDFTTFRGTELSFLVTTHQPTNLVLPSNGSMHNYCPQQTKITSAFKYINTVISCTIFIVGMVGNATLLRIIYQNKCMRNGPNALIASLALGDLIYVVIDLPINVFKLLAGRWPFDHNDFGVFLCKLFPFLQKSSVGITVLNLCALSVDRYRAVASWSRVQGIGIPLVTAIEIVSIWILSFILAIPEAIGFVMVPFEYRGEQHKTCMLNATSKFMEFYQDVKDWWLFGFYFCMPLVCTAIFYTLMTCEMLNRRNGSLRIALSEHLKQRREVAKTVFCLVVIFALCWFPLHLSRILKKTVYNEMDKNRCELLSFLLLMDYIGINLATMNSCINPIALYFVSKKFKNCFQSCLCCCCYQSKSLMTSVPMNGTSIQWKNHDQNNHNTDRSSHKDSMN

[7] = target: Vascular endothelial growth factor receptor 1 (Homo sapiens, UniProt P17948); assay type: cell-based; details: huvec; also: in other assays of this panel Not Active means under 50% inhibition at 10 µM
[8] = target: Receptor tyrosine-protein kinase erbB-2 (Homo sapiens, UniProt P04626); assay type: cell-based; details: insect cells
Chain of Receptor tyrosine-protein kinase erbB-2 (P04626 whole entry): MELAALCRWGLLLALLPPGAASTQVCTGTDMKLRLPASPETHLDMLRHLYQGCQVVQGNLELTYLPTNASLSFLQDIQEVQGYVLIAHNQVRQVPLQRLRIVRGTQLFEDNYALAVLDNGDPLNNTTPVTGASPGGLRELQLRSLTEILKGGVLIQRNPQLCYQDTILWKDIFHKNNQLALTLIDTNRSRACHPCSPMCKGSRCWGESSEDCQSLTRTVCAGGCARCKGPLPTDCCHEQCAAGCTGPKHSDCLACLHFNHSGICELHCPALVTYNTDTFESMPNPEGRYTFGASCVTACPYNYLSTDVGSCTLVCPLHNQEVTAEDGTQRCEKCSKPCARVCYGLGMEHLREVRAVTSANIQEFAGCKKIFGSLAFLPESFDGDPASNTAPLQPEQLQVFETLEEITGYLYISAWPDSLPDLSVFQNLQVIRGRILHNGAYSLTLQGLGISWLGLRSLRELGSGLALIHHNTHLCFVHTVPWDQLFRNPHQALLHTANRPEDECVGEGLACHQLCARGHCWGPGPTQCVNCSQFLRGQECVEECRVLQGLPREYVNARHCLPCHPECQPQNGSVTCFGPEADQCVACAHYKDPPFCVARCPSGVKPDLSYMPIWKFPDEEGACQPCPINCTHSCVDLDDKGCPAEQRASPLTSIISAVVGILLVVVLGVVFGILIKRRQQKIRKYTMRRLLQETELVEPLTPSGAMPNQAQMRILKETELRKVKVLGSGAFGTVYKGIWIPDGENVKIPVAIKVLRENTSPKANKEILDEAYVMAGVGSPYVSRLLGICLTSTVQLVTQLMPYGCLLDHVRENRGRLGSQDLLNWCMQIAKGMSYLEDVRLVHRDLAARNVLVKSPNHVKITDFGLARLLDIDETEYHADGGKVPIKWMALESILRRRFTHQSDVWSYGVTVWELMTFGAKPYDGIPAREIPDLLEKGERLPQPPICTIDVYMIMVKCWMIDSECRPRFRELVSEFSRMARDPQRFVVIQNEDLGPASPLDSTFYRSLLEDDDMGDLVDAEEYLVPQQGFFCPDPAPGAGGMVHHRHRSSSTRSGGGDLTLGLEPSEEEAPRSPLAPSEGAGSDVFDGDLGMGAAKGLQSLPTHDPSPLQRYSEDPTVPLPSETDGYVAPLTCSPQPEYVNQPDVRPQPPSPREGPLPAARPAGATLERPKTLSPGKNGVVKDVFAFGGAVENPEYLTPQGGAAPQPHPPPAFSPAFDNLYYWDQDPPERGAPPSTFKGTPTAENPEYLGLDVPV

Chain of Vascular endothelial growth factor receptor 1 (P17948 whole entry): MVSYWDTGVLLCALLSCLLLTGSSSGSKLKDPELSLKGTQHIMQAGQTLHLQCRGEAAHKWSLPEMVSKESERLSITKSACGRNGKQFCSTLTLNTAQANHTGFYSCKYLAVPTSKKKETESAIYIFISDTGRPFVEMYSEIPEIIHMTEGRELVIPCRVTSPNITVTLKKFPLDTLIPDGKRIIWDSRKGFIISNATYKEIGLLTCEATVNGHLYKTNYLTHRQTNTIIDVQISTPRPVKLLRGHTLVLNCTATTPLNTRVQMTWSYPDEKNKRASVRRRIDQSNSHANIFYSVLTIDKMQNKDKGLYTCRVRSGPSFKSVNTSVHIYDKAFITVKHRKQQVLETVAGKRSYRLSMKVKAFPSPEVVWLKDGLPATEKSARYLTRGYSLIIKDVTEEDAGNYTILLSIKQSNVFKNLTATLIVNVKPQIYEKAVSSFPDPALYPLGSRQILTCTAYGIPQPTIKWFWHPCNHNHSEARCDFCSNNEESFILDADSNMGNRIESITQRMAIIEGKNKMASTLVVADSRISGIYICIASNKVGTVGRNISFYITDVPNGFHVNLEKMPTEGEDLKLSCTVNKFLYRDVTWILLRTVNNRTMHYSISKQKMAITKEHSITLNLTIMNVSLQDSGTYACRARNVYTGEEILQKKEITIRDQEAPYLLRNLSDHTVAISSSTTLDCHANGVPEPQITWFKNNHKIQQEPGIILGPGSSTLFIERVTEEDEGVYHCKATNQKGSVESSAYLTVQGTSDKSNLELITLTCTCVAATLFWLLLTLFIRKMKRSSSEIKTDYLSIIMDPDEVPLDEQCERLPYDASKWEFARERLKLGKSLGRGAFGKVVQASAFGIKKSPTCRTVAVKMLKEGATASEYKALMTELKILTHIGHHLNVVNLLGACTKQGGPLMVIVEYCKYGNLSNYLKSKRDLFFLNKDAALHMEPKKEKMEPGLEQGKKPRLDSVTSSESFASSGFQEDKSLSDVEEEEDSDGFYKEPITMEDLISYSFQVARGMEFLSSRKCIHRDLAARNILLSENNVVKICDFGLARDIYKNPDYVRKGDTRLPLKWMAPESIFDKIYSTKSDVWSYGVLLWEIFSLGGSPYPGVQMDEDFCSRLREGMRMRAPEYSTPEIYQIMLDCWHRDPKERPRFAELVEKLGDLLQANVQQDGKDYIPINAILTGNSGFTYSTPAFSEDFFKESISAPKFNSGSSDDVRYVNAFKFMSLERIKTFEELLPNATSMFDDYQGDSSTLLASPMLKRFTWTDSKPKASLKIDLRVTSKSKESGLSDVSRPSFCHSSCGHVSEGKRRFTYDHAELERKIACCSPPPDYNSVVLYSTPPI
Chain of 5-hydroxytryptamine receptor 4 (O70528 whole entry): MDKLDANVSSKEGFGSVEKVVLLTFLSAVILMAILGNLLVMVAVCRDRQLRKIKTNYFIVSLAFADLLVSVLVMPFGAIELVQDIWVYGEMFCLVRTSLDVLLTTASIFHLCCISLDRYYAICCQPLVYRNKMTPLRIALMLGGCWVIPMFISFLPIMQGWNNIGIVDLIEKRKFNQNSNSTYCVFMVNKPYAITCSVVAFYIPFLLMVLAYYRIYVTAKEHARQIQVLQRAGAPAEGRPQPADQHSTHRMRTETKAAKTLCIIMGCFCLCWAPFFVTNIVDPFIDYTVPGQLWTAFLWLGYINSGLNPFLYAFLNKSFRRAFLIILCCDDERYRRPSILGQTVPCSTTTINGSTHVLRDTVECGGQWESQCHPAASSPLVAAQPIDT
Chain of Insulin receptor (P15127 27-759 limits assumed): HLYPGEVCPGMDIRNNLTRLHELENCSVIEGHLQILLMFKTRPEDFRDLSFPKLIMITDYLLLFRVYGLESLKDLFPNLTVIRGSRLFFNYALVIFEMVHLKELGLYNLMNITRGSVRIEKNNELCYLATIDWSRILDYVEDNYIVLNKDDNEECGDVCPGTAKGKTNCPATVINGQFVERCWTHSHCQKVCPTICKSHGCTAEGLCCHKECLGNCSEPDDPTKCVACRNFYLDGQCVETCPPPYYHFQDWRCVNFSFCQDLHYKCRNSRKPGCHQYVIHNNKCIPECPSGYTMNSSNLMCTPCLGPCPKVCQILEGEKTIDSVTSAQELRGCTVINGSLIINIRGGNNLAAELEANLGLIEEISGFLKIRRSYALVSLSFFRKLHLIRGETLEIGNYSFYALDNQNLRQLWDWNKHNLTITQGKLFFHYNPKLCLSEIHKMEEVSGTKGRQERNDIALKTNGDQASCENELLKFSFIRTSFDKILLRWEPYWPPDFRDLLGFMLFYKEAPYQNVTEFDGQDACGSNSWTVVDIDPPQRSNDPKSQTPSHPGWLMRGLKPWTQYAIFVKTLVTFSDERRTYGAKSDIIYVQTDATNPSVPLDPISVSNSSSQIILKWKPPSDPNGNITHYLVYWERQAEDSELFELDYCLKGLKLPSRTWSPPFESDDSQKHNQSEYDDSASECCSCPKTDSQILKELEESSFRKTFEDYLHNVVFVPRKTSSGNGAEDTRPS
Chain of Insulin receptor (P15127 764-1383 limits assumed): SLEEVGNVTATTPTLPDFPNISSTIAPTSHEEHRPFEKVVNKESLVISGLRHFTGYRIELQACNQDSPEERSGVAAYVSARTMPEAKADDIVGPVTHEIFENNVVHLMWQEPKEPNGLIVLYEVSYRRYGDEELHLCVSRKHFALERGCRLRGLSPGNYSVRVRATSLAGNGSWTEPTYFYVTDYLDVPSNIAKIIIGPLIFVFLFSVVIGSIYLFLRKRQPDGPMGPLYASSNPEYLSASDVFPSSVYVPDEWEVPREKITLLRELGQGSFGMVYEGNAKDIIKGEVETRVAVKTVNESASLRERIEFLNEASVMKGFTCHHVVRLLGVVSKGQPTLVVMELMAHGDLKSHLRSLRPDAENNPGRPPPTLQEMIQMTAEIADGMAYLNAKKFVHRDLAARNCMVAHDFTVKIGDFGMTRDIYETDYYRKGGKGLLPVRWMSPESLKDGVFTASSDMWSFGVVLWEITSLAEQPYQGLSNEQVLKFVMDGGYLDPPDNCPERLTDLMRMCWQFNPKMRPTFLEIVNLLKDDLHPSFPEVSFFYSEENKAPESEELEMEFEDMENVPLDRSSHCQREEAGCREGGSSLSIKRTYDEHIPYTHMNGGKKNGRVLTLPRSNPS
Chain of Substance-P receptor (P25103 whole entry): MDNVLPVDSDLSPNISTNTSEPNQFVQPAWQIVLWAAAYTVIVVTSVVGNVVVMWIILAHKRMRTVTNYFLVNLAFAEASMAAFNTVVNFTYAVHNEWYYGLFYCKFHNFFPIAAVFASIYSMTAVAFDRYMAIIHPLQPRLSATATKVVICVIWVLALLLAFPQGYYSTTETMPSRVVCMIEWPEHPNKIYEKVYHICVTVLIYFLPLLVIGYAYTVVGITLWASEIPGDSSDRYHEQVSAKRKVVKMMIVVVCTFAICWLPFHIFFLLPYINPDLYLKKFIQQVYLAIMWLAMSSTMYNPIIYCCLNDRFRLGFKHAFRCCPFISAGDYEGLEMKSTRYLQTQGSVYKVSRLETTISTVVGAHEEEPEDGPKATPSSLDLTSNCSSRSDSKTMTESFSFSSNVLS

Row | Structure (SMILES) | IC50 [1] | Ki [1] | IC50 ([2]; cho-k1) | IC50 [3] | IC50 [4] | IC50 [5] | IC50 [6] | IC50 [7] | IC50 [8] | IC50 ([3]; read-out: IC50) | Ki ([3]; read-out: Ki) | IC50 ([2]; read-out: IC50) | Ki ([2]; read-out: Ki)
1 | CC(O)C(=O)O (stereo not given) [LACTIC ACID] | Not Active | Not Active | Not Active | Not Active | Not Active | Not Active | Not Active | Not Active | Not Active | – | – | – | –
2 | CC(N)C12CC3CC(CC(C3)C1)C2 (stereo not given) [RIMANTADINE] | Not Active | Not Active | Not Active | Not Active | Not Active | Not Active | Not Active | Not Active | Not Active | – | – | – | –
3 | CN1C[C@H](CNC(=O)OCc2ccccc2)C[C@@H]2c3cccc4c3c(cn4C)C[C@H]21 [METERGOLINE] | Not Active | Not Active | Not Active | – | Not Active | Not Active | Not Active | Not Active | Not Active | 1.64 µM | 0.274 µM | – | –
4 | CO[C@@H]1[C@@H](OC)[C@H](C)[C@@](O)(CC(=O)O)O[C@H]1[C@H](C)[C@H]1O[C@@]2(CC[C@@](C)([C@H]3CC[C@@](C)([C@@H]4O[C@@H]([C@H]5O[C@](C)(O)[C@H](C)C[C@@H]5C)C[C@@H]4O[C@@H]4C[C@H](OC)[C@@H](OC)[C@H](C)O4)O3)O2)C[C@H](O)[C@H]1C.N [MADURAMICIN] | Not Active | Not Active | Not Active | Not Active | Not Active | Not Active | Not Active | Not Active | Not Active | – | – | – | –
5 | CCOC(=O)C1=C(C)NC(C)=C(C(=O)OCC)C1c1ccccc1/C=C/C(=O)OC(C)(C)C [LACIDIPINE] | Not Active | Not Active | – | Not Active | Not Active | Not Active | Not Active | Not Active | Not Active | – | – | 4.04 µM | 2.28 µM
6 | CC(C)(C)NC[C@H](O)COc1cccc2c1CCCC2=O [LEVOBUNOLOL] | Not Active | Not Active | Not Active | Not Active | Not Active | Not Active | Not Active | Not Active | Not Active | – | – | – | –
7 | Cc1[nH]c(=O)c(C#N)cc1-c1ccncc1 [MILRINONE] | Not Active | Not Active | Not Active | Not Active | Not Active | Not Active | Not Active | Not Active | Not Active | – | – | – | –
8 | C1CCN2C[C@@H]3C[C@@H](CN4CCCC[C@@H]34)[C@H]2C1 [SPARTEINE] | Not Active | Not Active | Not Active | Not Active | Not Active | Not Active | Not Active | Not Active | Not Active | – | – | – | –
9 | Cc1cnc(NC(=O)C2=C(O)c3ccccc3S(=O)(=O)N2C)s1 [MELOXICAM] | Not Active | Not Active | Not Active | Not Active | Not Active | Not Active | Not Active | Not Active | Not Active | – | – | – | –
10 | CO[C@@]12[C@H](COC(N)=O)C3=C(C(=O)C(C)=C(N)C3=O)N1C[C@@H]1N[C@@H]12 [MITOMYCIN] | Not Active | Not Active | Not Active | Not Active | Not Active | Not Active | Not Active | Not Active | Not Active | – | – | – | –
11 | CC(Cl)(Cl)Cl [TRICHLOROETHANE] | Not Active | Not Active | Not Active | Not Active | Not Active | Not Active | Not Active | Not Active | Not Active | – | – | – | –
12 | O=[As][O-].[Na+] [SODIUM ARSENITE] | Not Active | Not Active | Not Active | Not Active | Not Active | Not Active | Not Active | Not Active | Not Active | – | – | – | –
13 | Cc1ccc(Cl)c(Nc2ccccc2C(=O)O)c1Cl [MECLOFENAMIC ACID] | Not Active | Not Active | Not Active | Not Active | Not Active | Not Active | Not Active | Not Active | Not Active | – | – | – | –
14 | Cc1ccc(S(=O)(=O)NC(=O)NN2CCCCCC2)cc1 [TOLAZAMIDE] | Not Active | Not Active | Not Active | Not Active | Not Active | Not Active | Not Active | Not Active | Not Active | – | – | – | –
15 | O=C(O)c1cc(/N=N/c2ccc(S(=O)(=O)Nc3ccccn3)cc2)ccc1O [SULFASALAZINE] | Not Active | Not Active | Not Active | Not Active | Not Active | Not Active | Not Active | Not Active | Not Active | – | – | – | –
16 | CC(=O)O[C@]1(C(C)=O)CC[C@H]2[C@@H]3C[C@H](C)C4=CC(=O)CC[C@]4(C)[C@H]3CC[C@@]21C [MEDROXYPROGESTERONE ACETATE] | Not Active | Not Active | Not Active | Not Active | Not Active | Not Active | Not Active | Not Active | Not Active | – | – | – | –
17 | CC[C@H](C)C(=O)O[C@H]1CCC=C2C=C[C@H](C)[C@H](CC[C@@H]3C[C@@H](O)CC(=O)O3)[C@H]21 [MEVASTATIN] | Not Active | Not Active | Not Active | Not Active | Not Active | Not Active | Not Active | Not Active | Not Active | – | – | – | –
18 | CCN(CC)CCNC(=O)c1cc(Cl)c(N)cc1OC [METOCLOPRAMIDE] | Not Active | Not Active | Not Active | Not Active | Not Active | Not Active | Not Active | Not Active | Not Active | – | – | – | –
19 | Cc1nnc(NS(=O)(=O)c2ccc(N)cc2)s1 [SULFAMETHIZOLE] | Not Active | Not Active | Not Active | Not Active | Not Active | Not Active | Not Active | Not Active | Not Active | – | – | – | –
20 | CCC(C)(C)C(=O)O[C@H]1C[C@@H](C)C=C2C=C[C@H](C)[C@H](CC[C@@H]3C[C@@H](O)CC(=O)O3)[C@H]21 [SIMVASTATIN] | Not Active | Not Active | Not Active | Not Active | Not Active | Not Active | Not Active | Not Active | Not Active | – | – | – | –
21 | CN1C(=O)OC(C)(C)C1=O [TRIMETHADIONE] | Not Active | Not Active | Not Active | Not Active | Not Active | Not Active | Not Active | Not Active | Not Active | – | – | – | –
22 | CC[C@H](C)[C@@H](CO[C@@H](Cc1ccccc1)C(=O)N[C@@H](CCS(C)(=O)=O)C(=O)OC(C)C)NC[C@@H](N)CS | Not Active | Not Active | Not Active | Not Active | Not Active | Not Active | Not Active | Not Active | Not Active | – | – | – | –
